From US20170157145A1, “SUBSTANCE INDUCING EXPRESSION OF PARKIN POLYPEPTIDE AND USE THEREOF” (Samsung Electronics Co., Ltd., priority 2015, published 2017)

Legend:
parkin = test: Parkin expression in mouse brain subregions after i.p. hydrocortisone (immunoblot); assay type: in vivo; conditions: striatum, ventral midbrain and cerebellum; i.p. 7 days; vs vehicle treated control mice; normalized to β-actin
Method: The head skin was closed by suturing and wound healing and recovery were monitored following surgery. […] The brain was removed and processed for immunohistochemistry. […] After homogenization, samples were rotated at 4° C. for 30 min for complete lysis, then the homogenate was centrifuged at 52,000 rpm for 20 min, and the resulting fractions were collected. Protein levels were quantified using the BCA kit (Pierce) with BSA standards and analyzed by immunoblot. […] The densitometric analyses of the bands were performed using ImageJ (NIH, http://rsb.info.nih.gov/ij/).

human Parkin promoter = test: Parkin promoter luciferase screening in HEK-Parkin-Luc cell line; assay type: cell-based; conditions: relative to DMSO, 10 μM, about 24 hours
Method: To identify compounds capable of inducing expression of Parkin protein at the promoter level, a pGL3-Parkin-Luc DNA construct was used (Cell Death and Differentiation, vol. 18, No. 5, p. 769-782, 2011.05 ). This construct was used to quantify the activity of human Parkin promoter by luminescence intensity due to a luciferase expression level. As a cell line, a human embryonic kidney cell line HEK-293T (ATCC), which maintains Parkin protein activity at a low level, was prepared.
Thereafter, 5 μg/ml of puromycin (Calbiochem) was added to the HEK-293T cells, and cultured at 37° C. and 5 % CO2 for about 21 days. Every 3 days, the medium was replaced by a fresh medium containing 5 μg/ml of puromycin. Stable cell lines were established from single colonies of the cultured cell line. A cell line showing stable luciferase activity was obtained, and designated as HEK-Parkin-Luc, which was used to screen for compounds capable of activating the Parkin promoter. […]
Then, the cultured cells were washed with PBS, and a luminescent substrate (Promega) was added. Luminescence intensity of the cells was measured using a microplate luminometer (Berthold Technologies), and luciferase activity relative to a negative control of 0.1% DMSO was calculated.

AIMP2 = AIMP2 level in mouse striatum and ventral midbrain after i.p. hydrocortisone (western blot); assay type: in vivo; conditions: hydrocortisone 7 days vs DMSO
Method: The head skin was closed by suturing and wound healing and recovery were monitored following surgery. […] The brain was removed and processed for immunohistochemistry. […] After homogenization, samples were rotated at 4° C. for 30 min for complete lysis, then the homogenate was centrifuged at 52,000 rpm for 20 min, and the resulting fractions were collected. Protein levels were quantified using the BCA kit (Pierce) with BSA standards and analyzed by immunoblot.
The densitometric analyses of the bands were performed using ImageJ (NIH, http://rsb.info.nih.gov/ij/).

HEK 293T cell line = test: Cell protecting effect against H2O2 oxidative stress cytotoxicity (Alamar blue assay); assay type: cell-based, human; conditions: cytotoxicity inhibition ratio relative to DMSO; 10 μM 48 hours, then H2O2 500 μM 90 minutes
Method: A cytotoxicity-induced model by application of oxidative stress to the HEK 293T cell line was used. 10 μM of each of the 22 compounds was applied to the HEK cell line and cultured at 37° C. and 5% CO2 for about 48 hours. H2O2 (Sigma-Aldrich, final concentration of 500 μM) was applied to the cultured cells and cultured at 37° C. and 5% CO2 for about 90 minutes. Thereafter, cells were collected and cytotoxicity was examined by Alamar blue® assay (Thermo Fisher Scientific).
The level of H2O2-induced cytotoxicity in cells treated with each of the 22 compounds was compared with cells treated with DMSO alone. 16 compounds having a significant cytotoxicity inhibitory effect (P<0.05) against oxidative stress were selected.
In Table 1, the values of luciferase activity and immunoblotting were expressed relative to DMSO, and the cell protecting effect (%) represents a cytotoxicity inhibition ratio, relative to DMSO. […] Further, “n” represents the number of experiments that were repeated, and “s.e.” represents standard error.

[1] = test system: tyrosine hydroxylase (TH)-positive dopaminergic neurons in the substantia nigra pars compacta; test: 6-OHDA-induced PD mouse model, stereological count of TH-positive dopaminergic neurons; assay type: in vivo; conditions: hydrocortisone pretreatment 0.4 mg/kg i.p. daily; 6-OHDA 8 ug intrastriatal on day 7
Method: Hydrocortisone was given to mice intraperitoneally. Hydrocortisone administration began on day 1 and continued for 11 days followed by stereological assessment of dopamine neuron counts. 6-OHDA intrastriatal injection was done on day 7. For stereotaxic injection of 6-hydroxy dopamine (6-OHDA, 8 ug), eight-week-old C57/BL6 mice treated either with hydrocortisone for 7 days or DMSO as a control were anesthetized with pentobarbital (60 mg/kg). An injection cannula (26.5 gauge) was applied stereotaxically into the striatum (anteroposterior, 0.5 mm from bregma; mediolateral, 2.0 mm; dorsoventral, 3.0 mm) unilaterally (applied into the right hemisphere). […] The head skin was closed by suturing and wound healing and recovery were monitored following surgery. […] Protein levels were quantified using the BCA kit (Pierce) with BSA standards and analyzed by immunoblot. […]
After scheduled treatments of hydrocortisone (0.4 mg/kg body weight, i.p. administration daily) in 6-OHDA intoxication models and control groups, animals were anesthetized with pentobarbital (50 mg/kg, intraperitoneal injection) and perfused with PBS followed by 4% paraformaldehyde (wt/vol in PBS). […] Total numbers of TH-positive neurons in substantia nigra pars compacta were counted using the Optical Fractionator probe of Stereo Investigator software (MicroBrightfield, Williston, Vt.). […]

Parkin protein = test: Immunoblotting of Parkin protein in HEK 293T cells; assay type: cell-based, human; conditions: Parkin protein relative to DMSO, 10 μM, about 48 hours
Method: Among the 44 compounds selected in the initial screen described in 2, 22 compounds were examined to determine whether they increased expression of Parkin protein when they are applied to an HEK 293T cell line.
10 μM of each compound was added to the HEK 293T cells, and cultured at 37° C. and 5% CO2 for about 48 hours. The cultured cells were collected, and proteins were obtained from the cells. Anti-Parkin protein antibody (Cell signaling) and anti-beta actin antibody (Sigma-Aldrich) were used to perform immunoblotting, and an image of the immunoblotting is shown in FIG. 1.

| Compound | increase of parkin expression (parkin) | Luciferase activity (human Parkin promoter) | downregulation of parkin's toxic substrate AIMP2 (AIMP2) | Cell protecting effect (%) (HEK 293T cell line) | dopaminergic neuronal survival against 6-OHDA intoxication [1] | Immunoblotting (Parkin protein) |
| --- | --- | --- | --- | --- | --- | --- |
| C[C@]12CCC(=O)C=C1CC[C@@H]1[C@@H]2[C@@H](O)C[C@@]2(C)[C@H]1CC[C@]2(O)C(=O)CO [Hydrocortisone, (11β)-11,17,21-trihydroxypregn-4-ene-3,20-dione] | approximately two fold | 1.52 | 20% | 35.53% | markedly enhanced dopaminergic neuronal survival | 1.11 |
| O=C(c1ccccc1)c1ccc2n1CCC2C(=O)O (racemic) [Ketorolac tromethamine, (±)-5-benzoyl-2,3-dihydro-1H-pyrrolizine-1-carboxylic acid] | – | 1.31 | – | 21.49% | – | 1.95 |
